Structures are written as SMILES. pIC50: −log10 of the molar value.

The pIC50 is the IC50 on a negative log10 scale, so that one unit is a factor of ten.

This assay addresses T1, Human GO (Homo sapiens, UniProt Q9UJM8).
T1 construct: purchased Novus Biologicals NBP1-72412
T1 sequence (Q9UJM8 1-370): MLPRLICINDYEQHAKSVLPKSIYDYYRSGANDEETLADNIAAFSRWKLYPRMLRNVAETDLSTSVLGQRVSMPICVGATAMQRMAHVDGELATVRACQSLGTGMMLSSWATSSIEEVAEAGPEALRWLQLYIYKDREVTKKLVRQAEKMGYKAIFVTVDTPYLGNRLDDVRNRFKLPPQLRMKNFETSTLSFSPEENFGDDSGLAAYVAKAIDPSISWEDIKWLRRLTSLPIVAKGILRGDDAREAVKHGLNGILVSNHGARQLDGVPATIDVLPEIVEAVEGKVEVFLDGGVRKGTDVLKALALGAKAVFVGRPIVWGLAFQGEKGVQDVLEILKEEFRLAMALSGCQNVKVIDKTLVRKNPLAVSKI
Kind of assay: GO enzymatic assay (coupled fluorescence/HRP assay, glycolate substrate). It counts as biochemical. The settings on record: Table 2; read-out: Range (range of IC50 values calculated from the enzymatic assays). The procedure, abridged: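 Human GO incubated with glycolate substrate in 50 mM potassium phosphate, pH 7, with varying inhibitor concentrations. Activity read by coupled HRP fluorescence. IC50 taken from variable-slope sigmoidal dose-response fits of percent inhibition relative to DMSO control.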

Regarding `O=C(O)c1[nH]nnc1Oc1ccc(C2CCC(N3CCCCC3)CC2)cc1` (stereo not shown) [Compound 306, 4-(4-(4-(piperidin-1-yl)cyclohexyl)phenoxy)-1H-1,2,3-triazole-5-carboxylic acid 2,2,2-trifluoroacetate], the pIC50 was 6.00 to 7.00.

Consider `CC(C)C(=O)OCOC(=O)c1[nH]nnc1O[C@H]1CC[C@H](c2ccc(OC(F)(F)F)cc2)CC1` [Compound 307, (isobutyryloxy)methyl 4-(((trans)-4-(4-(trifluoromethoxy)phenyl)cyclohexyl)oxy)-1H-1,2,3-triazole-5-carboxylate], for which the pIC50 is 5.00 to 6.00.

Take `O=C(O)c1[nH]nnc1O[C@H]1CC[C@@H](c2ccc(Cl)c(Cl)c2)CC1` [Compound 308-1, 4-(((cis)-4-(3,4-dichlorophenyl)cyclohexyl)oxy)-1H-1,2,3-triazole-5-carboxylic acid]: the pIC50 was above 7.00.

For the molecule `O=C(O)c1[nH]nnc1O[C@H]1CC[C@H](c2ccc(Cl)c(Cl)c2)CC1` [Compound 308-2, 4-(((trans)-4-(3,4-dichlorophenyl)cyclohexyl)oxy)-1H-1,2,3-triazole-5-carboxylic acid], the pIC50 is above 7.00. The result for `O=C(O)c1[nH]nnc1Oc1ccc(Cl)c(OCC2CCCCC2)c1` [Compound 309, 4-(4-chloro-3-(cyclohexylmethoxy)phenoxy)-1H-1,2,3-triazole-5-carboxylic acid] reads above 7.00; that for `O=C(O)c1[nH]nnc1O[C@H]1CC[C@@H](c2ccc(C(F)(F)F)cc2)CC1` [Compound 310, 4-(((cis)-4-(4-(trifluoromethyl)phenyl)cyclohexyl)oxy)-1H-1,2,3-triazole-5-carboxylic acid], above 7.00. The result for `O=C(O)c1[nH]nnc1SC1CCC2(CCCC2)CC1` [Compound 311, 4-(spiro[4.5]decan-8-ylthio)-1H-1,2,3-triazole-5-carboxylic acid 2,2,2-trifluoroacetate] reads above 7.00. `O=C(O)c1[nH]nnc1CSc1ccc(-c2ccc(OC(F)(F)F)cc2)cc1` [Compound 312, 4-(((4′-(trifluoromethoxy)-[1,1′-biphenyl]-4-yl)thio)methyl)-1H-1,2,3-triazole-5-carboxylic acid 2,2,2-trifluoroacetate]: the pIC50 is above 7.00. In the case of `CCC(=O)OCOC(=O)c1[nH]nnc1Sc1ccc(-c2ccc(N3CCCCC3)cc2)cc1` [Compound 313, (propionyloxy)methyl 4-((4′-(piperidin-1-yl)-[1,1′-biphenyl]-4-yl)thio)-1H-1,2,3-triazole-5-carboxylate 2,2,2-trifluoroacetate] it was 5.00 to 6.00; in that of `O=C(O)c1[nH]nnc1SC1CCC(c2ccc(OC(F)(F)F)cc2)C1` (stereo not shown) [Compound 314, 4-((3-(4-(trifluoromethoxy)phenyl)cyclopentyl)thio)-1H-1,2,3-triazole-5-carboxylic acid], above 7.00; in that of `O=C(O)c1[nH]nnc1SC1CCC2(CCCCC2)CC1` [Compound 315, 4-(spiro[5.5]undecan-3-ylthio)-1H-1,2,3-triazole-5-carboxylic acid 2,2,2-trifluoroacetate], above 7.00. In the case of `O=C(O)c1[nH]nnc1SCc1ccc(N2CCCCC2)c2ccccc12` [Compound 316, 4-(((4-(piperidin-1-yl)naphthalen-1-yl)methyl)thio)-1H-1,2,3-triazole-5-carboxylic acid 2,2,2-trifluoroacetate] it was above 7.00; in that of `O=C(OCOC(=O)C1CCCCC1)c1[nH]nnc1Sc1ccc(-c2ccc(N3CCCCC3)cc2)cc1` [Compound 317, ((cyclohexanecarbonyl)oxy)methyl 4-((4′-(piperidin-1-yl)-[1,1′-biphenyl]-4-yl)thio)-1H-1,2,3-triazole-5-carboxylate 2,2,2-trifluoroacetate], below 5.00; in that of `O=C(O)c1[nH]nnc1Sc1ccc(Cl)c(OC(F)(F)F)c1` [Compound 318, 4-((4-chloro-3-(trifluoromethoxy)phenyl)thio)-1H-1,2,3-triazole-5-carboxylic acid], above 7.00. In the case of `O=C(O)c1[nH]nnc1Sc1ccc(-c2ccc(N3CCC(F)(F)CC3)cc2)cc1` [Compound 319, 4-((4′-(4,4-difluoropiperidin-1-yl)-[1,1′-biphenyl]-4-yl)thio)-1H-1,2,3-triazole-5-carboxylic acid 2,2,2-trifluoroacetate], the pIC50 is above 7.00. The result for `O=C(O)c1[nH]nnc1SC1Cc2ccc(OC(F)(F)F)cc2C1` (stereo not shown) [Compound 320, 4-((5-(trifluoromethoxy)-2,3-dihydro-1H-inden-2-yl)thio)-1H-1,2,3-triazole-5-carboxylic acid] reads above 7.00.

On to `O=C(O)c1[nH]nnc1Sc1ccc(-c2ccc(OC(F)(F)F)cn2)cc1` [Compound 321, 4-((4-(5-(trifluoromethoxy)pyridin-2-yl)phenyl)thio)-1H-1,2,3-triazole-5-carboxylic acid 2,2,2-trifluoroacetate], for which the negative logarithm of the IC50 (pIC50) is above 7.00. The result for `O=C(O)c1[nH]nnc1CSc1ccc(-c2ccc(Cl)c(Cl)c2)cc1` [Compound 322, 4-(((3′,4′-dichloro-[1,1′-biphenyl]-4-yl)thio)methyl)-1H-1,2,3-triazole-5-carboxylic acid 2,2,2-trifluoroacetate] reads above 7.00; that for `O=C(O)c1[nH]nnc1SC1CCN(c2ccc(Cl)c(Cl)c2)CC1` [Compound 323, 4-((1-(3,4-dichlorophenyl)piperidin-4-yl)thio)-1H-1,2,3-triazole-5-carboxylic acid 2,2,2-trifluoroacetate], above 7.00.

Turning to `O=C(O)c1[nH]nnc1SC1CCN(c2ccc(C(F)(F)F)cc2)CC1` [Compound 324], the pIC50 was above 7.00. In the case of `O=C(O)c1[nH]nnc1SC1CCN(c2cc(Cl)cc(Cl)c2)CC1` [Compound 325, 4-((1-(3,5-dichlorophenyl)piperidin-4-yl)thio)-1H-1,2,3-triazole-5-carboxylic acid 2,2,2-trifluoroacetate] it was above 7.00. The result for `O=C(O)c1[nH]nnc1SC1CCC(c2cccc(OC(F)(F)F)c2)CC1` (stereo not shown) [Compound 326, 4-((4-(3-(trifluoromethoxy)phenyl)cyclohexyl)thio)-1H-1,2,3-triazole-5-carboxylic acid] reads above 7.00; that for `O=C(O)c1[nH]nnc1SC1CCC(c2cccc(C(F)(F)F)c2)CC1` (stereo not shown) [Compound 327, 4-((4-(3-(trifluoromethyl)phenyl)cyclohexyl)thio)-1H-1,2,3-triazole-5-carboxylic acid], above 7.00. On to `O=C(O)c1[nH]nnc1CSc1ccc(-c2cc(Cl)cc(Cl)c2)cc1` [Compound 328, 4-(((3′,5′-dichloro-[1,1′-biphenyl]-4-yl)thio)methyl)-1H-1,2,3-triazole-5-carboxylic acid], for which the pIC50 is above 7.00.

With `O=C(O)c1[nH]nnc1CSc1ccc(-c2ccc(OC(F)(F)F)c(Cl)c2)cc1` [Compound 329, 4-(((3′-chloro-4′-(trifluoromethoxy)-[1,1′-biphenyl]-4-yl)thio)methyl)-1H-1,2,3-triazole-5-carboxylic acid], the pIC50 was above 7.00. In the case of `O=C(O)c1[nH]nnc1SC1CCN(c2cc(Cl)ccc2Cl)CC1` [Compound 330, 4-((1-(2,5-dichlorophenyl)piperidin-4-yl)thio)-1H-1,2,3-triazole-5-carboxylic acid], the pIC50 is above 7.00. The result for `O=C(O)c1[nH]nnc1S[C@H]1CC[C@@H](c2cc(Cl)cc(Cl)c2)CC1` [Compound 331, 4-(((cis)-4-(3,5-dichlorophenyl)cyclohexyl)thio)-1H-1,2,3-triazole-5-carboxylic acid] reads above 7.00; that for `O=C(O)c1[nH]nnc1S[C@H]1CC[C@@H](c2ccc(C(F)(F)F)cc2)CC1` [Compound 332, 4-(((cis)-4-(4-(trifluoromethyl)phenyl)cyclohexyl)thio)-1H-1,2,3-triazole-5-carboxylic acid], above 7.00; that for `CN(Cc1nn[nH]c1C(=O)O)c1ccc(-c2ccc(OC(F)(F)F)cc2)cc1` [Compound 333, 4-((methyl(4′-(trifluoromethoxy)-[1,1′-biphenyl]-4-yl)amino)methyl)-1H-1,2,3-triazole-5-carboxylic acid 2,2,2-trifluoroacetate], above 7.00. As for `O=C(O)c1[nH]nnc1-c1cc(OCC2CC2)cc(C(F)(F)F)c1` [Compound 334, 4-(3-(cyclopropylmethoxy)-5-(trifluoromethyl)phenyl)-1H-1,2,3-triazole-5-carboxylic acid], the pIC50 is above 7.00. The result for `O=C(O)c1[nH]nnc1[S+]([O-])c1ccc(Cl)c(OCC2CCCCC2)c1` (stereo not shown) [Compound 335, 4-((4-chloro-3-(cyclohexylmethoxy)phenyl)sulfinyl)-1H-1,2,3-triazole-5-carboxylic acid] reads 5.00 to 6.00. The result for `O=C(O)c1[nH]nnc1Sc1ccc(Cl)c(OCC2CCCCC2)c1` [Compound 336, 4-((4-chloro-3-(cyclohexylmethoxy)phenyl)thio)-1H-1,2,3-triazole-5-carboxylic acid] reads above 7.00; that for `O=C(O)c1[nH]nnc1S[C@H]1CC[C@@H](c2cc(Cl)cc(OC(F)(F)F)c2)CC1` [Compound 337, 4-(((cis)-4-(3-chloro-5-(trifluoromethoxy)phenyl)cyclohexyl)thio)-1H-1,2,3-triazole-5-carboxylic acid], above 7.00. The result for `O=C(O)c1[nH]nnc1SC1CCN(c2cc(Cl)cc(OC(F)(F)F)c2)CC1` [Compound 338, 4-((1-(3-chloro-5-(trifluoromethoxy)phenyl)piperidin-4-yl)thio)-1H-1,2,3-triazole-5-carboxylic acid] reads above 7.00.
